Measurements as given in patent publication US9187467B2, “2-phenyl benzothiazole linked imidazole compounds as potential anticancer agents and process for the preparation thereof” (Council of Scientific and Industrial Research, priority 2012, dated 2015).
Where two headings read alike, the source gives them in different places.

Experiments:
A549/ATCC = experiment: SRB anticancer assay, non-small lung; type: cell-based, human; parameters: Log10GI50: unit not given here
786-0 = experiment: SRB anticancer assay, renal; type: cell-based, human
MCF7 = experiment: SRB anticancer assay, breast; type: cell-based, human; settings: Homo sapiens, MCF7, 48 h
TK-10 = experiment: SRB anticancer assay, renal; type: cell-based, human; settings: Homo sapiens, TK-10, 48 h
NCI-H522 = experiment: SRB anticancer assay, non-small lung; type: cell-based, human; parameters: Log10GI50: unit not given here
HS 578T = experiment: SRB anticancer assay, breast; type: cell-based, human; parameters: Log10GI50: unit not given here
SF-295 = experiment: SRB anticancer assay, CNS; type: cell-based, human; parameters: Log10GI50: unit not given here
DU-145 = experiment: SRB anticancer assay, prostate; type: cell-based, human; parameters: Log10GI50: unit not given here
[1] = system: Ovarian cancer cell lines; experiment: SRB anticancer assay, panel result; type: cell-based, human
Method: (§1) The compounds were evaluated for anticancer activity against sixty human cancer cells derived from nine cancer types (leukemia cell line, non-small-cell lung cell line, colon cell line, CNS cell line, melanoma cell line, ovarian cell line, prostate cell line, renal cancer cell line and breast cancer cell line) as shown in Table 1. For each compound, dose response curves for each cell line were measured at a minimum of five concentrations at 10 fold dilutions. A protocol of 48 h continuous drug exposure was used and a sulforhodamine B (SRB) protein assay was used to estimate cell viability or growth.

[2] = system: Prostate cancer cell lines; experiment: SRB anticancer assay, panel result; type: cell-based, human
Method: as §1

[3] = system: Non-small cell lung cancer cell lines; experiment: SRB anticancer assay, panel result; type: cell-based, human
Method: as §1

Breast cancer cell lines = experiment: SRB anticancer assay, panel result; type: cell-based, human
Method: as §1

[4] = system: Leukemia cancer cell lines; experiment: SRB anticancer assay, panel result; type: cell-based, human
Method: as §1

Colon cancer cell lines = experiment: SRB anticancer assay, panel result; type: cell-based, human
Method: as §1

Renal cancer cell lines = experiment: SRB anticancer assay, panel result; type: cell-based, human
Method: as §1

CNS cancer cell lines = experiment: SRB anticancer assay, panel result; type: cell-based, human
Method: as §1

[5] = system: Melanoma cancer cell lines; experiment: SRB anticancer assay, panel result; type: cell-based, human
Method: as §1

UACC-62 = experiment: SRB anticancer assay, melanoma; type: cell-based, human
HT29 = experiment: SRB anticancer assay, colon; type: cell-based, human; settings: Homo sapiens, HT-29; HT29, 48 h
SK-MEL-2 = experiment: SRB anticancer assay, melanoma; type: cell-based, human
MALME-3M = experiment: SRB anticancer assay, melanoma; type: cell-based, human; parameters: Log10GI50: unit not given here
SNB-75 = experiment: SRB anticancer assay, CNS; type: cell-based, human; parameters: Log10GI50: unit not given here
PC-3 = experiment: SRB anticancer assay, prostate; type: cell-based, human; parameters: Log10GI50: unit not given here
K562 (Leukemia) cells = experiment: Cell cycle distribution by flow cytometry; type: cell-based
Method in brief: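 Compound-treated K562 cells analysed for cell-cycle distribution by flow cytometry; values given as % of cells.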

LOX IMVI = experiment: SRB anticancer assay, melanoma; type: cell-based, human; parameters: Log10GI50: unit not given here

COc1cc(OC)cc(-c2cncn2-c2ccc(-c3nc4cc(OC)c(OC)c(OC)c4s3)cc2)c1 [Compound 7d, 2-(4-(5-(3,5-Dimethoxyphenyl)-1H-imidazol-1-yl)phenyl)-5,6,7-trimethoxybenzo[d]thiazole]
GI50 (A549/ATCC; Homo sapiens, 48 h): 5.59 µM
Log10GI50 (A549/ATCC; present compounds): −5.25
Log10GI50 (786-0; 786-0, present compounds): −4.99 log10 M
GI50 (786-0; Homo sapiens, 786-0, 48 h): 10.3 µM
GI50 (MCF7): 4.02 µM
GI50 (TK-10): 26.4 µM
GI50 (NCI-H522; Homo sapiens, NCI-H522, 48 h): 11.8 µM
Log10GI50 (NCI-H522; NCI-H522, present compounds): −4.93
GI50 (HS 578T; Homo sapiens, 48 h): 6.71 µM
Log10GI50 (HS 578T; present compounds): −4.68
GI50 (SF-295; Homo sapiens, SF-295, 48 h): 3.64 µM
Log10GI50 (SF-295; SF-295, present compounds): −5.44
Log10GI50 (DU-145; DU-145, present compounds): −4.51
GI50 (DU-145; Homo sapiens, DU-145, 48 h): 31.1 µM
LC50 ([1]; Homo sapiens, Ovarian panel, 50% net cell death, read-out: mean graph midpoint value (MG_MID) of Log10 LC50 (converted)): > 100 µM
GI50 ([1]; Homo sapiens, Ovarian panel, read-out: mean graph midpoint value (MG_MID) of Log10 GI50 (converted)): 16.2 µM
GI50 ([1]; Homo sapiens, seven ovarian cancer cell lines, exposure at least 48 h, read-out: GI50, range over the panel): 6.07 to 49.9 µM
mean graph midpoint value (MG_MID) of log10 TGI ([1]; Ovarian panel, total inhibition of net cell growth): −4.08
LC50 ([2]; Homo sapiens, Prostate panel, 50% net cell death, read-out: mean graph midpoint value (MG_MID) of Log10 LC50 (converted)): > 100 µM
GI50 ([2]; Homo sapiens, Prostate panel, read-out: mean graph midpoint value (MG_MID) of Log10 GI50 (converted)): 10 µM
GI50 ([2]; Homo sapiens, two prostate cancer cell lines (PC-3, DU-145), exposure at least 48 h, read-out: GI50, range over the panel): 3.17 to 31.1 µM
mean graph midpoint value (MG_MID) of log10 TGI ([2]; Prostate panel, total inhibition of net cell growth): >−4.0
LC50 ([3]; Homo sapiens, Non-small cell lung panel, 50% net cell death, read-out: mean graph midpoint value (MG_MID) of Log10 LC50 (converted)): > 100 µM
GI50 ([3]; Homo sapiens, Non-small cell lung panel, read-out: mean graph midpoint value (MG_MID) of Log10 GI50 (converted)): 15.1 µM
GI50 ([3]; Homo sapiens, nine Non-small cell lung cancer cell lines, exposure at least 48 h, read-out: GI50, range over the panel): 1.87 to 86.5 µM
mean graph midpoint value (MG_MID) of log10 TGI ([3]; Non-small cell lung panel, total inhibition of net cell growth): >−4.0
mean graph midpoint value (MG_MID) of log10 TGI (Breast cancer cell lines; Breast panel, total inhibition of net cell growth): >−4.0
CC50 (Breast cancer cell lines; Homo sapiens, Breast panel, 50% net cell death, read-out: mean graph midpoint value (MG_MID) of Log10 LC50 (converted)): > 100 µM
GI50 (Breast cancer cell lines; Homo sapiens, Breast panel, read-out: mean graph midpoint value (MG_MID) of Log10 GI50 (converted)): 9.12 µM
GI50 (Breast cancer cell lines; Homo sapiens, six breast cancer cell lines, exposure at least 48 h, read-out: GI50, range over the panel): 4.02 to 20.9 µM
LC50 ([4]; Homo sapiens, Leukemia panel, 50% net cell death, read-out: mean graph midpoint value (MG_MID) of Log10 LC50 (converted)): > 100 µM
GI50 ([4]; Homo sapiens, Leukemia panel, read-out: mean graph midpoint value (MG_MID) of Log10 GI50 (converted)): 3.72 µM
GI50 ([4]; Homo sapiens, six leukemia cancer cell lines, exposure at least 48 h, read-out: GI50, range over the panel): 2.43 to 7.14 µM
mean graph midpoint value (MG_MID) of log10 TGI ([4]; Leukemia panel, total inhibition of net cell growth): >−4.0
mean graph midpoint value (MG_MID) of log10 TGI (Colon cancer cell lines; Colon panel, total inhibition of net cell growth): >−4.0
LC50 (Colon cancer cell lines; Homo sapiens, Colon panel, 50% net cell death, read-out: mean graph midpoint value (MG_MID) of Log10 LC50 (converted)): > 100 µM
GI50 (Colon cancer cell lines; Homo sapiens, Colon panel, read-out: mean graph midpoint value (MG_MID) of Log10 GI50 (converted)): 9.12 µM
GI50 (Colon cancer cell lines; Homo sapiens, seven colon cancer cell lines, exposure at least 48 h, read-out: GI50, range over the panel): 3.76 to 13.7 µM
CC50 (Renal cancer cell lines; Homo sapiens, Renal panel, 50% net cell death, read-out: mean graph midpoint value (MG_MID) of Log10 LC50 (converted)): > 100 µM
GI50 (Renal cancer cell lines; Homo sapiens, Renal panel, read-out: mean graph midpoint value (MG_MID) of Log10 GI50 (converted)): 14.8 µM
GI50 (Renal cancer cell lines; Homo sapiens, eight renal cancer cell lines, exposure at least 48 h, read-out: GI50, range over the panel): 1.94 to 31.9 µM
mean graph midpoint value (MG_MID) of log10 TGI (Renal cancer cell lines; Renal panel, total inhibition of net cell growth): −4.03
mean graph midpoint value (MG_MID) of log10 TGI (CNS cancer cell lines; CNS panel, total inhibition of net cell growth): −4.11
CC50 (CNS cancer cell lines; Homo sapiens, CNS panel, 50% net cell death, read-out: mean graph midpoint value (MG_MID) of Log10 LC50 (converted)): > 100 µM
GI50 (CNS cancer cell lines; Homo sapiens, CNS panel, read-out: mean graph midpoint value (MG_MID) of Log10 GI50 (converted)): 12 µM
GI50 (CNS cancer cell lines; Homo sapiens, six CNS cancer cell lines, exposure at least 48 h, read-out: GI50, range over the panel): 3.64 to 22.1 µM
LC50 ([5]; Homo sapiens, Melanoma panel, 50% net cell death, read-out: mean graph midpoint value (MG_MID) of Log10 LC50 (converted)): > 100 µM
GI50 ([5]; Homo sapiens, Melanoma panel, read-out: mean graph midpoint value (MG_MID) of Log10 GI50 (converted)): 9.33 µM
GI50 ([5]; Homo sapiens, nine melanoma cancer cell lines, exposure at least 48 h, read-out: GI50, range over the panel): 2.85 to 31.6 µM
mean graph midpoint value (MG_MID) of log10 TGI ([5]; Melanoma panel, total inhibition of net cell growth): −4.02
GI50 (UACC-62; Homo sapiens, UACC-62, 48 h): 13.8 µM
Log10GI50 (UACC-62; UACC-62, present compounds): −4.86 log10 M
GI50 (HT29): 8.33 µM
GI50 (SK-MEL-2; Homo sapiens, SK-MEL-2, 48 h): 6.16 µM
Log10GI50 (SK-MEL-2; SK-MEL-2, present compounds): −5.21 M
GI50 (MALME-3M; Homo sapiens, Malme-3M, 48 h): 9.58 µM
Log10GI50 (MALME-3M; MALME-3M, present compounds): −5.02
GI50 (SNB-75; Homo sapiens, SNB-75, 48 h): 15 µM
Log10GI50 (SNB-75; SNB-75, present compounds): −4.82
GI50 (PC-3; Homo sapiens, PC-3, 48 h): 3.17 µM
Log10GI50 (PC-3; PC-3, present compounds): −5.50
cells in G2/M phase (K562 (Leukemia) cells): 16%
GI50 (LOX IMVI; Homo sapiens, 48 h): 6.93 µM
Log10GI50 (LOX IMVI; present compounds): −5.16
